Molecular target: T1, SlyD (EcSlyD) (Escherichia coli, UniProt P0A9K9)
T1 construct: residues 1–165, lacking the unstructured C-terminal tail
Assay: intrinsic fluorescence titration; supported by 2D 1H-15N HSQC NMR titration, in-cell NMR and PPIase inhibition (Ki […])
Type: binding

T1 sequence (P0A9K9 1-165): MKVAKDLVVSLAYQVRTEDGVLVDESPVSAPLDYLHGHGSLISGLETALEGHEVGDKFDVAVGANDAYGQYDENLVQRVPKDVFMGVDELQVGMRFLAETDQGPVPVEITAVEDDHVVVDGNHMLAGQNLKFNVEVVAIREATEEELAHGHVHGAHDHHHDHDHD

**Q.** `[Cu+2].c1ccc(-c2cc(-c3c4ccccc4cc4ccccc34)cc(-c3ccccn3)n2)nc1.c1ccc(-c2cc(-c3c4ccccc4cc4ccccc34)cc(-c3ccccn3)n2)nc1` [Cu2+ complex] was tested. Which Kd did it give?
**A.** The Kd was 45 µM.

Source: PMC5296862, “Targeting the molecular chaperone SlyD to inhibit bacterial growth with a small molecule” (Scientific Reports, 2017)
